Source: patent US8853215B2, “Derivatives of N-acyl-N′-phenylpiperazine useful (inter alia) for the prophylaxis or treatment of diabetes” (Takeda Pharmaceutical Company Limited, priority 2009, dated 2014)

Tests used:
[1] = biological target: human RBP4 (Homo sapiens (Human), UniProt P02753); experiment: Binding assay by Retinol-RBP4-TTR ELISA
How it was run: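 Biotinylated human TTR was captured on streptavidin plates, then His-tagged human RBP4 was added with compound premixed with 50 nM retinol (8 doses). Binding ran 2 h at room temperature in 50 mM Tris-HCl, 150 mM NaCl, 0.005% Tween 20, 1 mM DTT, 0.1% BSA, read by luminescence. Inhibition was scaled between retinol+DMSO and retinol-free controls, and IC50 fitted.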

[2] = biological target: RBP4 (Rattus norvegicus (Rat), UniProt P04916); experiment: Single administration test in Wistar fatty rats, plasma RBP4 by ELISA; type: in vivo; conditions: male Wistar fatty rats, 10 mg/kg oral single dose, mean±SD
Experimental: The action of the compounds of the present invention to lower plasma RBP4 level was evaluated using the animal model shown below.
Male Wistar fatty rats (fa/fa) were bred in Takeda Pharmaceutical Company Limited and maintained on normal diet (CE2, CLAE Japan, Inc.) and tap water. Animals were housed in a temperature-controlled room adjusted to a 12-hour light/12-hour dark cycle beginning at 7:00 and 19:00, respectively. All procedures were conducted according to the experimental animal care use committee of Takeda Pharmaceutical Company.
Male 13-43-week-old Wistar fatty rats were divided into groups randomly. Compounds were suspended in 0.5% (w/v) methylcellulose in water and given orally to Wistar fatty rats at a dose of 10 mg/10 mL/kg of body weight (3-5 rats per group). Blood samples were obtained from tail vein with sodium heparin as an anticoagulant at time 0 hr (just before the administration), 4 hr, 7 hr, and 24 hr after the administration, followed by plasma separation by centrifugation. Plasma RBP4 levels were measured by enzyme-linked immunosorbent assay described in the following section.
Plasma samples were analyzed in duplicate for RBP4 by an enzyme-linked immunosorbent assay. Mouse recombinant RBP4 (Takeda Pharmaceutical Company Limited) was used as standards, and the assay range was 0.313-20 ng/ml. Samples were diluted 10,000-fold with phosphate-buffered saline (PBS) (Sigma) containing 10% (w/v) BlockAce (Dainippon Sumitomo Pharma Co., Ltd). Rabbit anti-RBP4 polyclonal antibody (100 μL/well of 50 μg/mL, Hokudo Co, Ltd) was incubated in a 96-well plate (Nalge Nunc International K.K.) for overnight at 4° C. Subsequently, the plates were washed with PBS-T (Wako Pure Chemical Industries, Ltd.) and blocked with PBS containing 25% BlockAce for 1 hr at room temperature. After another washing with PBS-T, samples and standards were applied to the well, and the plates were incubated for 2 hr at room temperature. After a washing the wells, peroxidase-labeled (Dojindo Laboratories) anti-RBP4 (100 μL/well) was added to the wells, and then the plates were incubated for 1 hr at room temperature. After a final washing with PBS-T, substrate solution 3,3,5,5-tetramethylbenzidine (Sigma) was added to the wells, and the plates were placed in the dark for 5-20 min at room temperature. The reaction was stopped with 0.5 M sulphuric acid and the optical density was measured with a spectrophotometer at 450 nm. The changes in plasma RBP4 levels were expressed as % of initial/Control. All data are presented as mean±SD.

inhibition at 10 µM ([1]; at 10 μM compound, read-out: human RBP4 binding inhibitory activity(% at 10 μM)): 100%
IC50 ([1]; retinol 50 nM, His-tagged human RBP4, biotinylated human TTR, read-out: human RBP4 binding inhibitory activity (IC50 nM)): 38 nM
RBP4 (% of initial/Control) 0 hr ([2]; 0 hr (just before the administration)): 100.0 ± 13.8 % of initial/Control
RBP4 (% of initial/Control) 4 hr ([2]; 4 hr after administration): 59.6 ± 14.5 % of initial/Control
RBP4 (% of initial/Control) 7 hr ([2]; 7 hr after administration): 58.5 ± 5.6 % of initial/Control
RBP4 (% of initial/Control) 24 hr ([2]; 24 hr after administration): 106.0 ± 16.1 % of initial/Control
Compound: CC(C)(C)c1ccccc1N1CCN(C(=O)C(=O)O)CC1 [Example 44, 2-[4-(2-tert-Butylphenyl)piperazin-1-yl]-2-oxoacetic acid]
